Active and inactive are the calls of the source.
What was measured:
[1] = target: T1, Replicative DNA helicase DnaB (Mycobacterium tuberculosis, UniProt P9WMR3); assay: DnaB intein splicing inhibitors, dose response, biochemical, cell-free fluorescence (AID 449749); type: functional
T1 sequence (P9WMR3 whole entry): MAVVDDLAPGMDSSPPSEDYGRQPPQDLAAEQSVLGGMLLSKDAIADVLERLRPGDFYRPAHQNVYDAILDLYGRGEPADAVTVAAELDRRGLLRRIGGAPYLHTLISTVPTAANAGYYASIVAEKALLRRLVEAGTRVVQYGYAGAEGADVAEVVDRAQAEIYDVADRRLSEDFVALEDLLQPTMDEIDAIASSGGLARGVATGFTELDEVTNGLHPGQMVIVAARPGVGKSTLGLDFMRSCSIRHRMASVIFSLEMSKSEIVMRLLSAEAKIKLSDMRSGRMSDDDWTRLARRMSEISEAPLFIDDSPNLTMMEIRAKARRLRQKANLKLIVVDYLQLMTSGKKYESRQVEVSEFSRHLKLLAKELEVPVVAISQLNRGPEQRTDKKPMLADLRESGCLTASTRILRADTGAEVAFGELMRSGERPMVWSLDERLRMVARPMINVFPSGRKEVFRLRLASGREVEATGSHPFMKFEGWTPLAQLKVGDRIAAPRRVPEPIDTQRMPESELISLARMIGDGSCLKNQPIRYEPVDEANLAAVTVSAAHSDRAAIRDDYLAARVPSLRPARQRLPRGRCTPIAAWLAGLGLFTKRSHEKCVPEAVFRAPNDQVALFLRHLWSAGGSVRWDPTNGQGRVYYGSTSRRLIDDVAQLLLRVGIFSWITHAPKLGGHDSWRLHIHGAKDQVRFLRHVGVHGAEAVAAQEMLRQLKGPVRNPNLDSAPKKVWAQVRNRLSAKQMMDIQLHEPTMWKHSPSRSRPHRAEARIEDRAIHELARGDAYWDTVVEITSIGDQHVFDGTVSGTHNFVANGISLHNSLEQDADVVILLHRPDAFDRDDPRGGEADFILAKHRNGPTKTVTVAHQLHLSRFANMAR

INS1 = assay: INS-1E survival protection against cytokine death – cell-based, luminescence, retest, dose response (AID 449756); type: functional; settings: Rattus norvegicus;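 further: cell death triggered by IL-1 beta plus TNF-alpha plus IFN-gamma mixture; protective hits raise ATP signal compared with cytokine alone wells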
[2] = target: Neuropeptide Y receptor type 1 (Homo sapiens, UniProt P25929); type: functional;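 further: HEK293 cells with a CNG channel challenged with NPY then isoproterenol; potency as antagonist that reverses NPY suppression of cAMP signal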
Sequence of Neuropeptide Y receptor type 1 (P25929 whole entry): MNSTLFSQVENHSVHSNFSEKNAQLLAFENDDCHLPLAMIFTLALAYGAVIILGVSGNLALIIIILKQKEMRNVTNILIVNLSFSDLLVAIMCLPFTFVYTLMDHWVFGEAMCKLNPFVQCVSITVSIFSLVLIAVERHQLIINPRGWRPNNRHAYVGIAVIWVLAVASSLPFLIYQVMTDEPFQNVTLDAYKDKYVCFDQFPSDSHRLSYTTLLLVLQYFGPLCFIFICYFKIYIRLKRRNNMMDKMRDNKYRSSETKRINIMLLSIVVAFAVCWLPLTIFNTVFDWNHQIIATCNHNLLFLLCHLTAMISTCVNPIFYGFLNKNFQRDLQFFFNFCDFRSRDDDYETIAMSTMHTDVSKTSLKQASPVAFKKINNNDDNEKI

[3] = target: Neuropeptide Y receptor type 2 (Homo sapiens, UniProt P49146); type: functional, cell-based;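 further: HEK293 cells expressing the receptor and a CNG channel; stimulus was NPY near EC95 followed by isoproterenol to raise cAMP; antagonist potency measured as restoring cAMP signal that NPY suppresses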
Sequence of Neuropeptide Y receptor type 2 (P49146 whole entry): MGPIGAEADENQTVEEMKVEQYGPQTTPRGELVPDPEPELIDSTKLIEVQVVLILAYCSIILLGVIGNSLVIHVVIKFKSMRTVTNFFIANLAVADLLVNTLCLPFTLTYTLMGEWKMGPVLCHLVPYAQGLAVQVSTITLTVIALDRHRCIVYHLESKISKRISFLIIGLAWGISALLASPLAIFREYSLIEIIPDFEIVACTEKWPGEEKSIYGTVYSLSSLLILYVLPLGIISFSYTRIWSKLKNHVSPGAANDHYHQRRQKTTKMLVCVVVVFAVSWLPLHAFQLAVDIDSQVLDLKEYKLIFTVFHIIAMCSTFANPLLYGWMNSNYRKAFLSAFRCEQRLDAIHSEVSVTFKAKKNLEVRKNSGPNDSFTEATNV

Protein RecA = target: T2, Protein RecA (Mycobacterium tuberculosis, UniProt P9WHJ3); assay: Fluorescence Cell-Free Homogeneous Dose Retest to Identify Inhibitors of RecA-Intein Splicing Activity. [Related pubchem assays (depositor defined):AID2097, AID2223, AID489010, AID492950]; type: functional
T2 sequence (P9WHJ3 whole entry): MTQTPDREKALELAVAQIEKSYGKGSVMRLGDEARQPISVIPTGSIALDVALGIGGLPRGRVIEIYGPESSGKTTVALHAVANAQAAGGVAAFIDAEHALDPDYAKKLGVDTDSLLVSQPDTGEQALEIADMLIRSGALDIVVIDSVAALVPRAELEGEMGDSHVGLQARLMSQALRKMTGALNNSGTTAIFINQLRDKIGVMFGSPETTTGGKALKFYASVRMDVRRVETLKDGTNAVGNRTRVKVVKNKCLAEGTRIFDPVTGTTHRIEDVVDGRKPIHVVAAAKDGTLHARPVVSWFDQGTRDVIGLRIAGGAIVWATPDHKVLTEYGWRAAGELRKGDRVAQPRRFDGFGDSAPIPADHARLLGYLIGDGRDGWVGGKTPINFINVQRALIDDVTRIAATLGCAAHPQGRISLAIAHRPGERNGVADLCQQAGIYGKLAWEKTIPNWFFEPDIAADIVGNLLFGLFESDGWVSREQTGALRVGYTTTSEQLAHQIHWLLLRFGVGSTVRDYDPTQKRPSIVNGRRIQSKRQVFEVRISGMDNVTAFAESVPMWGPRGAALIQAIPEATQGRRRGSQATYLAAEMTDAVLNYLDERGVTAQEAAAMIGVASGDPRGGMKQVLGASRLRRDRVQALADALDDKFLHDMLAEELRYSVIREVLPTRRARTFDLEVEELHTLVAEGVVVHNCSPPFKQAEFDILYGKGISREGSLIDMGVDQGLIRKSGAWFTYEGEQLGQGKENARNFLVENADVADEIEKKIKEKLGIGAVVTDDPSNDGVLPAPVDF

[4] = Intein inhibitors as potential Tuberculosis drugs, a cytotoxicity screen. [Related pubchem assays (depositor defined):AID2221, AID2223, AID434968, AID435010, AID449749, AID449750, AID489010]; type: functional
Hexokinase-1 = Hexokinase-1 (Homo sapiens, UniProt P19367); assay: HK1 enzyme activation by HKDC1 hits – biochemical, selectivity assay for HKDC1 activator project, dose response (AID 504762); type: functional
Sequence of Hexokinase-1 (P19367 whole entry): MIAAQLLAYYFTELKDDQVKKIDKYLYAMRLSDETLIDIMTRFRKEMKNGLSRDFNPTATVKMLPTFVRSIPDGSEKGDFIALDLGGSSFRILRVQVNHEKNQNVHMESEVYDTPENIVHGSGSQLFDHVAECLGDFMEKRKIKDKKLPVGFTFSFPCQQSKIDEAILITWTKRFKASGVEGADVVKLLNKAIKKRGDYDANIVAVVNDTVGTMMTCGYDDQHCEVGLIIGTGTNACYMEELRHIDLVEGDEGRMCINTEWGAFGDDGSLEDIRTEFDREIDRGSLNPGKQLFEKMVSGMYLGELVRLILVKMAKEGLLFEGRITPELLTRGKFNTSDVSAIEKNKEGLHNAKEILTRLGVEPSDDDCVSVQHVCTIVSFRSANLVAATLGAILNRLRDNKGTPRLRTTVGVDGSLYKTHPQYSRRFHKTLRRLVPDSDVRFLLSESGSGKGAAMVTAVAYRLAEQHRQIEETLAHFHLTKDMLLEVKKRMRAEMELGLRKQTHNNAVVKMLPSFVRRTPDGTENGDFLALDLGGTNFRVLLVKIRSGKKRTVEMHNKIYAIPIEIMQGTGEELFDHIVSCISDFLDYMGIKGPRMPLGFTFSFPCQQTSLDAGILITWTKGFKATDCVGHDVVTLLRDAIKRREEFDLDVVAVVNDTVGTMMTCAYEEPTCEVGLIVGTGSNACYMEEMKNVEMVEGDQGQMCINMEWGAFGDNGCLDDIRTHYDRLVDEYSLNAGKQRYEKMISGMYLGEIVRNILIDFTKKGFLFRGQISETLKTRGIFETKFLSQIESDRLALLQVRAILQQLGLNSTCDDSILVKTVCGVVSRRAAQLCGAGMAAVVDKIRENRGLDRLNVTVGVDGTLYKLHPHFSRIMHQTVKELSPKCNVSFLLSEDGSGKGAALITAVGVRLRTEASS

Hexokinase HKDC1 = target: T3, Hexokinase HKDC1 (Homo sapiens, UniProt Q2TB90); assay: activation of HKDC1 glucose phosphorylation – biochemical, W721R variant, dose response (AID 504730); type: functional
T3 sequence (Q2TB90 whole entry): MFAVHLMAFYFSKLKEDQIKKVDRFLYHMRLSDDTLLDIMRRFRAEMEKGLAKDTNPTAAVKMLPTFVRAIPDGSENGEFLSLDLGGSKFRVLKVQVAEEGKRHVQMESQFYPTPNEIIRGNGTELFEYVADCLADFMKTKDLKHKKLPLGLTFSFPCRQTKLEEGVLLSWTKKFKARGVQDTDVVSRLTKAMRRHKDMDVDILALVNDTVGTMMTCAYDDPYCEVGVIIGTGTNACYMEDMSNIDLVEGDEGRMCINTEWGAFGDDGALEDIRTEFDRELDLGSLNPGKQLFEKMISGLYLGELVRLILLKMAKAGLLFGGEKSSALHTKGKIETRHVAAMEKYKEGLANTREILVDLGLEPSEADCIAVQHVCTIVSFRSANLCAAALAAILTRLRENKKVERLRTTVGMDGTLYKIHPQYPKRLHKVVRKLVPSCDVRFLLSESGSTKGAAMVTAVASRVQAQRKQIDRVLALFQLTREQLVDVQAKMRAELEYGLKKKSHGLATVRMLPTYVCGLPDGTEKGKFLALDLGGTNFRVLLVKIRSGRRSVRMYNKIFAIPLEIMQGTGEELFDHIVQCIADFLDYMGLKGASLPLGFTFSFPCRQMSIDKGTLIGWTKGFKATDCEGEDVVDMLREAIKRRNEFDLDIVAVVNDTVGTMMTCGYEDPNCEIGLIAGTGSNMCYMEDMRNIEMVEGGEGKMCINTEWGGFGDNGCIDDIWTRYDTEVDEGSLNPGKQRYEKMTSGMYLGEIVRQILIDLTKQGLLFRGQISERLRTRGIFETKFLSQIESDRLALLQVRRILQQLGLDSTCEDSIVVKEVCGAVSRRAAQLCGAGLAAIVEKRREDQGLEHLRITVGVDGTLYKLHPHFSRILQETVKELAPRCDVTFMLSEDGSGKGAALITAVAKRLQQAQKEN

Bcl-2-related protein A1 = target: T4, Bcl-2-related protein A1 (Mus musculus, UniProt Q07440); type: functional;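 further: confirmatory dose–response counterscreen on Bfl-1, used to check hits from a UBC13 polyubiquitin inhibitor campaign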
T4 sequence (Q07440 whole entry): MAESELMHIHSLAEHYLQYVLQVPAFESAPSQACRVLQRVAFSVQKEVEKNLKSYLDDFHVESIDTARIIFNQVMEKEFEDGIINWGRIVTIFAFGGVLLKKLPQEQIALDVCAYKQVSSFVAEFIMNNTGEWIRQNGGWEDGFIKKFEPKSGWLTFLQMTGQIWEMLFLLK

[5] = target: Lysine-specific demethylase 4C (Homo sapiens, UniProt Q9H3R0); assay: inhibition of JMJD2C H3K9me3 demethylation – biochemical, DELFIA europium, cherry-picked samples, dose response (AID 488835); type: functional
Sequence of Lysine-specific demethylase 4C (Q9H3R0 whole entry): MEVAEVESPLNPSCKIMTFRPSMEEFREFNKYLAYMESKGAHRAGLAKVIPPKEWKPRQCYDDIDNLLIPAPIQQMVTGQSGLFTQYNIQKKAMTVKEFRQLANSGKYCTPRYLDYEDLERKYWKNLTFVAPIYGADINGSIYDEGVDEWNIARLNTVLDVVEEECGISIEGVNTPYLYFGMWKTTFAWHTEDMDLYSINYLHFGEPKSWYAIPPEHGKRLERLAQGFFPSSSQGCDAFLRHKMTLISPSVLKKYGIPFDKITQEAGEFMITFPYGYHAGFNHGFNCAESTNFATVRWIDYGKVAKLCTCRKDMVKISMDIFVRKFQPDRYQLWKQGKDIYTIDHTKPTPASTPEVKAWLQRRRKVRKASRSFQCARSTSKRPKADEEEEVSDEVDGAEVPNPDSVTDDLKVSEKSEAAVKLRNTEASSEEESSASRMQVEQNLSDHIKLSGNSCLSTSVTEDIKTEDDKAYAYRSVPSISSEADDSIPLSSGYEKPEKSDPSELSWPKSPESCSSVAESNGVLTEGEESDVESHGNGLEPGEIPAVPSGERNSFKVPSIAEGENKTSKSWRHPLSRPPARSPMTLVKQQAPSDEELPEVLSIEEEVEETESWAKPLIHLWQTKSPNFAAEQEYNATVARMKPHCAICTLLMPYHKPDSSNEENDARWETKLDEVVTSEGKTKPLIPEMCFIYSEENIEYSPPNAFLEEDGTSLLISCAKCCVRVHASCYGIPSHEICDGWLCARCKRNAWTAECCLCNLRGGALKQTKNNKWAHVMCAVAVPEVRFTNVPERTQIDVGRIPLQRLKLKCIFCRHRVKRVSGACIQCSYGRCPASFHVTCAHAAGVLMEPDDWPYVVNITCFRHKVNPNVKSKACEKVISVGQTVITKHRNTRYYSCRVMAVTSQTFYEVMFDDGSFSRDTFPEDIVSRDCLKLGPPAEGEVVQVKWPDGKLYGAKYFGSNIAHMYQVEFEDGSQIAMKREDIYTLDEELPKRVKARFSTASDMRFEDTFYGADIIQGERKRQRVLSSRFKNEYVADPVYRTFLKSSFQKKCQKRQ

[6] = target: T5, Ubiquitin-conjugating enzyme E2 N (Homo sapiens, UniProt P61088); type: functional
T5 sequence (P61088 whole entry): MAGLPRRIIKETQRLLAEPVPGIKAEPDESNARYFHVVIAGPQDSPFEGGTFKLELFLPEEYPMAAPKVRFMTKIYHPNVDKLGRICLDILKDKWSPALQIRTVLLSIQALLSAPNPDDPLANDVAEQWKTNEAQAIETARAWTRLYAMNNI

Nonstructural protein 1 = Nonstructural protein 1 (Influenza A virus, UniProt Q194T2); type: functional, Influenza A virus (A/California/07/2009(H1N1))
Sequence of Nonstructural protein 1 (Q194T2 whole entry): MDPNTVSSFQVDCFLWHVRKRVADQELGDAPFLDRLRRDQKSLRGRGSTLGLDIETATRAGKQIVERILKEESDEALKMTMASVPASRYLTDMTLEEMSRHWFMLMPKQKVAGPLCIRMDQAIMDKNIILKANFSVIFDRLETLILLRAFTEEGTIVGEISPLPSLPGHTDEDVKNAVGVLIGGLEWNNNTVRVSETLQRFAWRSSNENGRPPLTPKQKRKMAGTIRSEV

[7] = target: T5, Ubiquitin-conjugating enzyme E2 N; type: functional; remark: listed apart in the source
[8] = HGIII-sPLA2 enzyme inhibition potency – biochemical, QFRET, IC50, dose response (AID 743457);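 further: green fluorescence rise as the enzyme cleaves BODIPY PC-A2 in liposomes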
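Wherever CC50 is given: cells exposed to compound for 72 hours before luminescence readout.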

COC(=O)c1c(C)oc2ccc(N(C(=O)c3ccncc3)S(=O)(=O)c3ccc4ccccc4c3)cc12
AC50 [1]: 4.46 µM (active) | AC50 (INS1): 12.9 µM (active) | IC50 [2]: 4.84 µM (active) | IC50 [3]: 7.94 µM (active) | EC50 (Protein RecA): 4.08 µM (active) | CC50 [4]: 36.5 µM (active)

Cc1ccccc1NC1=NN=C(c2ccccc2F)CS1
EC50 (Hexokinase-1): 53.2 µM (inactive) | EC50 (Hexokinase HKDC1): 27 µM (inactive)

Cc1cccc(-n2cnc(C(=O)NN=C(S)Nc3ccccc3)c2)n1
IC50 (Bcl-2-related protein A1): > 20 µM (inactive) | AC50 [5]: 5.67 µM (active) | IC50 [6]: 14.8 µM (active) | IC50 (Nonstructural protein 1): 4.86 µM (active) | IC50 [7]: 6.96 µM (active) | IC50 [8]: > 122 µM (inactive)
